Laboratory results: ChEMBL document CHEMBL5331068, “Briarane-type diterpenoids, the inhibitors of osteoclast formation by interrupting Keap1-Nrf2 interaction and activating Nrf2 pathway” (Eur J Med Chem, 2023)
The source made the active and inactive calls. The rule behind the calls is not given here.

Assays:
BMDM [1] = experiment: Inhibition of osteoclast migration in RANKL-induced C57BL/6 mouse BMDM cells at 10 uM incubated for 48 hrs in the presence of M-CSF by TRAP staining based wound healing assay; format: functional, cell-based
BMDM [2] = experiment: Anti-osteoclastogenesis activity in RANKL-induced C57BL/6 mouse BMDM cells assessed as decrease in bone resorption pit number incubated for 10 days in the presence of M-CSF by inverted microscopic analysis; format: functional, cell-based; conditions: dose 1-10 µM, time 10.0 day
BMDM [3] = experiment: Anti-osteoclastogenesis activity in RANKL-induced C57BL/6 mouse BMDM cells assessed as inhibition of c-Fos protein level at 5 to 10 uM in the presence of M-CSF by Western blot analysis; format: functional, cell-based; conditions: dose 5-10 µM
[4] = target: Transcription factor p65 (Mus musculus) (UniProt Q04207); experiment: Inhibition of RANKL-induced p65 NF-kappaB phosphorylation in C57BL/6 mouse BMDM cells transfected with Nrf2 siRNA at 10 uM incubated for 60 mins by Western blot analysis; format: cell-based
BMDM [5] = experiment: Anti-osteoclastogenesis activity in RANKL-induced C57BL/6 mouse BMDM cells assessed as inhibition of NFATc1 protein level at 5 to 10 uM in the presence of M-CSF by Western blot analysis; format: functional, cell-based; conditions: dose 5-10 µM
BMDM [6] = experiment: Anti-osteoclastogenesis activity in RANKL-induced C57BL/6 mouse BMDM cells assessed as increase in nuclear Nrf2 level at 5 to 10 uM in the presence of M-CSF by Western blot analysis; format: functional, cell-based; conditions: dose 5-10 µM
[7] = target: Keap1/Nrf2 (Homo sapiens) (UniProt Q16236+Q14145); experiment: Disruption of 16mer biotinylated Nrf2 (unknown origin)-Keap1 kelch domain (unknown origin) protein-protein interaction upto 100 uM by Biolayer Interferometry assay
[8] = target: MAP kinase p38 (Mus musculus) (UniProt P47811+O08911+Q9WUI1+Q9Z1B7); experiment: Inhibition of RANKL-induced p38 MAPK phosphorylation in C57BL/6 mouse BMDM cells incubated for 60 mins by Western blot analysis; format: cell-based
[9] = target: Kelch-like ECH-associated protein 1 (Mus musculus) (UniProt Q9Z2X8); experiment: Binding affinity to Keap1 in mouse RAW264.7 cells assessed as thermal stability at 20 uM preincubated with compound for 1 hrs followed by heating at 37 to 65 degreeC for 3 mins by CETSA; format: cell-based; conditions: time 63.0 min
BMDM [10] = experiment: Anti-osteoclastogenesis activity in RANKL-induced C57BL/6 mouse BMDM cells assessed as increase in HO-1 expression at 5 to 10 uM in the presence of M-CSF by Western blot analysis; format: functional, cell-based; conditions: dose 5-10 µM
BMDM [11] = experiment: Anti-osteoclastogenesis activity in RANKL-induced C57BL/6 mouse BMDM cells assessed as inhibition of NFATc1 translocation into nuclei incubated for 3 days by DAPI staining based confocal microscopic analysis; format: functional, cell-based; conditions: time 3.0 day
RAW264.7 [12] = experiment: Anti-osteoclastogenesis activity in RANKL-induced mouse RAW264.7 cells transfected with Nrf2 siRNA assessed as increase in HO-1 expression level incubated for 3 days by Western blot analysis; format: functional, cell-based; conditions: time 3.0 day
RAW264.7 [13] = experiment: Anti-osteoclastogenesis activity in RANKL-induced mouse RAW264.7 cells transfected with Nrf2 siRNA assessed as increase in NFATc1 expression level incubated for 3 days by Western blot analysis; format: functional, cell-based; conditions: time 3.0 day
BMDM [14] = experiment: Anti-osteoclastogenesis activity in RANKL-induced C57BL/6 mouse BMDM cells assessed as decrease in bone resorption pit area incubated for 10 days in the presence of M-CSF by inverted microscopic analysis; format: functional, cell-based; conditions: dose 1-10 µM, time 10.0 day
[15] = Inhibition of RANKL-induced ERK phosphorylation in C57BL/6 mouse BMDM cells transfected with Nrf2 siRNA at 10 uM incubated for 60 mins by Western blot analysis; format: cell-based
BMDM [16] = experiment: Anti-osteoclastogenesis activity in RANKL-induced C57BL/6 mouse BMDM cells assessed as suppression of early stage osteoclast differentiation at 10 uM incubated from day 1 to day 3 in the presence of M-CSF by TRAP-staining based microscopic analysis; format: functional, cell-based; conditions: time 2.0 day
BMDM [17] = experiment: Anti-osteoclastogenesis activity in C57BL/6 mouse BMDM cells assessed as reduction in RANKL-induced ROS level at 5 to 10 uM incubated for 6 hrs by DCF-DA staining based fluorescence analysis; format: functional, cell-based; conditions: dose 5-10 µM
[18] = target: T1, NF-kappa-B inhibitor alpha (Mus musculus) (UniProt Q9Z1E3); experiment: Inhibition of RANKL-induced IkappaBalpha phosphorylation in C57BL/6 mouse BMDM cells transfected with Nrf2 siRNA at 10 uM incubated for 60 mins by Western blot analysis; format: cell-based
T1 sequence (whole entry): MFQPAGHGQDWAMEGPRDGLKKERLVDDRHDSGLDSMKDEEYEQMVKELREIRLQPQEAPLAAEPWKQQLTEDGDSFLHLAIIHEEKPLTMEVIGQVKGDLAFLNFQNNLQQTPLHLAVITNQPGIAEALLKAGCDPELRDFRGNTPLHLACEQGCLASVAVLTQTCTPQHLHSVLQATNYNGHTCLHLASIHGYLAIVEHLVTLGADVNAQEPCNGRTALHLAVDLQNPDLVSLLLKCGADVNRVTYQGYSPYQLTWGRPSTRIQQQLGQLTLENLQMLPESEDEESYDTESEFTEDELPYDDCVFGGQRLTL

BMDM [19] = experiment: Anti-osteoclastogenesis activity in RANKL-induced C57BL/6 mouse BMDM cells assessed as elimination of TRAP-positive multinucleated osteoclast incubated for 7 days in the presence of M-CSF by TRAP-staining based microscopic analysis; format: functional, cell-based; conditions: dose 1-10 µM, time 7.0 day
[20] = target: T2, Nuclear factor erythroid 2-related factor 2 (Mus musculus) (UniProt Q60795); experiment: Stabilization of Nrf2 in mouse RAW264.7 cells assessed as decrease in Nrf2 ubiquitination at 10 uM incubated for 48 hrs by Western blot based Co-immunoprecipitation analysis; format: cell-based
T2 sequence (whole entry): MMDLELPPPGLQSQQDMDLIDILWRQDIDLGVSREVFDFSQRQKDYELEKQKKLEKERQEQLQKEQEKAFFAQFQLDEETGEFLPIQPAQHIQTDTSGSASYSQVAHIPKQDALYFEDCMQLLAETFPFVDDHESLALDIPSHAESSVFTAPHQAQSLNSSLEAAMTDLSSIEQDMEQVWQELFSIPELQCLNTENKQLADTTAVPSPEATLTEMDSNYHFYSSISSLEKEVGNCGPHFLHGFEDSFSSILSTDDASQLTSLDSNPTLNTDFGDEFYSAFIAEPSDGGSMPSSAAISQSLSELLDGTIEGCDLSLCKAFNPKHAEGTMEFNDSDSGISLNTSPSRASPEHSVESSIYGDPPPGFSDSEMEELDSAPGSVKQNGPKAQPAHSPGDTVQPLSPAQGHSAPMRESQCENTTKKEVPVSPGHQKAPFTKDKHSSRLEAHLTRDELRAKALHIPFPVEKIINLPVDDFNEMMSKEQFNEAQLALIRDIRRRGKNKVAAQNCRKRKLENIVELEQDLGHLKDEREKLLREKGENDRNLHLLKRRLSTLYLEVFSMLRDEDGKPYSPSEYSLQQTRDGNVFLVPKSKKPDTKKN

Keap1/Nrf2 (Homo sapiens), sequence (Q14145 whole entry, looked up, the tested form may be a part): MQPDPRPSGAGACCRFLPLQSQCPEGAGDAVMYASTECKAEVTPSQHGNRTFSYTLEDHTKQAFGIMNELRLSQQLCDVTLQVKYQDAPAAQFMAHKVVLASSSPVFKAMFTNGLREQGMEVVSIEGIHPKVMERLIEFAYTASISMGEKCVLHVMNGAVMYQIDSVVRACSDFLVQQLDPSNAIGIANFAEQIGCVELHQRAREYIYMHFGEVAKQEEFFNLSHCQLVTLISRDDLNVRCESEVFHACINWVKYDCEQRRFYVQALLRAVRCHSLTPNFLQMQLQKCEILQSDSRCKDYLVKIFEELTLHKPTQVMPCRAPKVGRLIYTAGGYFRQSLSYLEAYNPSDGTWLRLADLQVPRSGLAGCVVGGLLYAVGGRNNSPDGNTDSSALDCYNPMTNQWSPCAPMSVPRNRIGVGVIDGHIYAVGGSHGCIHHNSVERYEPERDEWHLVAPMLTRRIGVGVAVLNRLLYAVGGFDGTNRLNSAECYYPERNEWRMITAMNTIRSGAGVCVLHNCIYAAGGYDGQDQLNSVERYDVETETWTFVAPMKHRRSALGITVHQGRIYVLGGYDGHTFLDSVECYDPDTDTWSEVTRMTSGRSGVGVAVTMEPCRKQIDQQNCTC
Keap1/Nrf2 (Homo sapiens), sequence (Q16236 whole entry, looked up, the tested form may be a part): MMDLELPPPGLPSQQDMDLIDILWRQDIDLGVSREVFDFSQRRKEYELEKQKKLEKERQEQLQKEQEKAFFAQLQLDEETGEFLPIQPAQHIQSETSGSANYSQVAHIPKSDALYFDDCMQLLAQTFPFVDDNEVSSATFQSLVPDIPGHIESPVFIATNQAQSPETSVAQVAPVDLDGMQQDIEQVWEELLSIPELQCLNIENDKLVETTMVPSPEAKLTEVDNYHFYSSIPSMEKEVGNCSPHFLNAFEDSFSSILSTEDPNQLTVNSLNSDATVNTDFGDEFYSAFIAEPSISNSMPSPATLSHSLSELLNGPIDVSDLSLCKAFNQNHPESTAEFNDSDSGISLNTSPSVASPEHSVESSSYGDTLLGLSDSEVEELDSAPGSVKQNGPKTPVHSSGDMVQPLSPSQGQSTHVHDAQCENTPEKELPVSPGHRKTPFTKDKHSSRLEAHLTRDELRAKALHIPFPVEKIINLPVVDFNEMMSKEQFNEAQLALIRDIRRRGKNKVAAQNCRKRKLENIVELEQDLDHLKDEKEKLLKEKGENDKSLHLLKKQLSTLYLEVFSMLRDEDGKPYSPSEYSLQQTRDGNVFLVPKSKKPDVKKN
Kelch-like ECH-associated protein 1 (Mus musculus), sequence (Q9Z2X8 whole entry): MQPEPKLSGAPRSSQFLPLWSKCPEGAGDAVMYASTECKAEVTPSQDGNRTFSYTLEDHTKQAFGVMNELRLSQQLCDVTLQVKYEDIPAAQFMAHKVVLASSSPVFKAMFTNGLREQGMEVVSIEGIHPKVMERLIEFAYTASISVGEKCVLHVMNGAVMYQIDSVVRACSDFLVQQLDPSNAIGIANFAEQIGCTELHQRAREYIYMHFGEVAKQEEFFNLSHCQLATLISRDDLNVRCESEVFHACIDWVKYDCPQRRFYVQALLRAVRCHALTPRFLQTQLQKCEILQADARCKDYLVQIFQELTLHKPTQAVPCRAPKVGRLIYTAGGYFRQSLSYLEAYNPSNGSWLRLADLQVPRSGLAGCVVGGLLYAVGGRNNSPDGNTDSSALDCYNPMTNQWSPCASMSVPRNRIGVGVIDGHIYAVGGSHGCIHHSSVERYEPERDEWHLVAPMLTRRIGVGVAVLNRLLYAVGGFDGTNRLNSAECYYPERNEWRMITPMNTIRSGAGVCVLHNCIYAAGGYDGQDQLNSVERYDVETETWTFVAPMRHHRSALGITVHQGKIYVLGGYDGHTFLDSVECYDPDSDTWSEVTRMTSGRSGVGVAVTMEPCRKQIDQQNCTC
Transcription factor p65 (Mus musculus), sequence (Q04207 whole entry): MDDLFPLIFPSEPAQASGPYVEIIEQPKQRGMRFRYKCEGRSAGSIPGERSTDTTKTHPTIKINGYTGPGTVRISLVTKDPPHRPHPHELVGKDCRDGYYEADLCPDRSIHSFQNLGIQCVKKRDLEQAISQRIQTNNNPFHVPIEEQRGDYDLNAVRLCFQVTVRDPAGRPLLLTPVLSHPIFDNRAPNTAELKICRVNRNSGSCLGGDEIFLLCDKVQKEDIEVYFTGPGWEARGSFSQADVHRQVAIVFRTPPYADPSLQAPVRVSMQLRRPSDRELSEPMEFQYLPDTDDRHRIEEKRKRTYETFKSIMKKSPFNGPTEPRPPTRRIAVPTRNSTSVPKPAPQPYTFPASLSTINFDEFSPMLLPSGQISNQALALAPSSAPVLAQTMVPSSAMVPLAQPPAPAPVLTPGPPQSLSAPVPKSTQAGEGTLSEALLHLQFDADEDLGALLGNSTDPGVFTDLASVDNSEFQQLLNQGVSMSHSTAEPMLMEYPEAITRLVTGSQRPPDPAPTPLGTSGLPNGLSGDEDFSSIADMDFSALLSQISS

inhibition [4]: inactive
Activity [7]: Active
inhibition [8]: Active
Activity [9]: Active
inhibition [18]: inactive
Activity [20]: Active
SMILES: C=C1[C@H]2O[C@]3([C@@H](C)C(=O)O[C@H]3[C@H]1Cl)[C@@H](OC(C)=O)[C@H]1[C@]3(CC[C@H](OC(C)=O)[C@]1(C)[C@@H](OC(C)=O)[C@@H]2OC(C)=O)CO3
inhibition (BMDM [1]): Active
Activity (BMDM [2]): Dose-Dependent Effect
Activity (BMDM [3]): Active
Activity (BMDM [5]): Active
Activity (BMDM [6]): Active
Activity (BMDM [10]): Active
Activity (BMDM [11]): Active
Activity (RAW264.7 [12]): inactive
Activity (RAW264.7 [13]): inactive
Activity (BMDM [14]): Dose-Dependent Effect
inhibition [15]: inactive
Activity (BMDM [16]): Active
Activity (BMDM [17]): Active
Activity (BMDM [19]): Dose-Dependent Effect
